Key:
Experiment in all cases: In vitro anti-tumor activity of molecular glue compounds, CellTiter-Lumi cell viability assay
Format in all cases: cell-based
HL-60 = details: Homo sapiens; HL-60 cells, 96 h incubation; read-out: Cell inhibitory activity (IC50 values) HL-60
Protocol: (§1) Different tumor cells were all commercially available and used for evaluating the anti-tumor inhibitory activity of the compounds of the present disclosure. Various tumor cells were cultured until the cell confluency reached 80%-90%, with cell viability above 90% as determined by trypan blue exclusion. Then, the cells were plated. Specifically, after cell density optimization, 100 µL of each of the cell suspensions of HL-60 and SK-BR-3 cells (cell density: 3000 cells/well), Romas cells (cell density: 6000 cells/well), NCI-H929 cells (cell density: 4000 cells/well), and NCI-H82 cells (cell density: 5000 cells/well) was plated in a BeyoGold™ ultra-low attachment black clear-bottom 96-well plate (Cat. No.: FULA965-24pcs), and the plate was incubated overnight. The next day, after the adherent cells were adhered to the wall and suspension cells requiring aggregation were aggregated, 50 µL of culture medium was aspirated from each well of the 96-well plate. Then, the compounds diluted with the corresponding culture media were added. Specifically, the compounds were serially diluted at a 5-fold gradient starting from the highest concentration of 1 µM, with a final DMSO concentration of 1%o, and the test compounds were then added to the cell culture plate. The plate was incubated in an incubator at 37 °C with 5% carbon dioxide for 96 h. Before measurement, the CellTiter-Lumi™ luminescent cell viability assay reagent was equilibrated to room temperature in the dark. Then, 50 µL of the CellTiter-Lumi™ (Cat. No.: C0065XL) cell viability assay reagent was added to each well of the 96-well plate. The plate was shaken in the dark on a shaker at 300 rpm for 10 min to ensure complete cell lysis. After the reaction was completed, the luminescence was measured on a multi-mode microplate reader. The cell inhibition rate was determined according to the luminescence. Then, a cell viability curve was generated by Graphpad Prism 8.0, and the IC50 values were calculated. The compounds of the present disclosure were tested for activity by the method described above. Table 1. Cell inhibitory activity (IC50 values)

NCI-H82 = details: Homo sapiens; NCI-H82 cells, 96 h incubation; read-out: Cell inhibitory activity (IC50 values) NCI-H82
Protocol: as §1

SK-BR-3 = details: Homo sapiens; SK-BR-3 cells, 96 h incubation; read-out: Cell inhibitory activity (IC50 values) SK-BR-3
Protocol: as §1

Romas = Romas cells, 96 h incubation; read-out: Cell inhibitory activity (IC50 values) Romas
Protocol: as §1

NCI-H929 = details: Homo sapiens; NCI-H929 cells, 96 h incubation; read-out: Cell inhibitory activity (IC50 values) NCI-H929
Protocol: as §1

## O=C1CCC(N2Cc3cc(CNC(=O)Nc4ccc(COC5CCCNC5)c(Cl)c4)ccc3C2=O)C(=O)N1 (stereo not drawn) [Compound B7]
HL-60
  IC50: 10 to 50 nM
NCI-H82
  IC50: 10 to 50 nM
SK-BR-3
  IC50: 10 to 50 nM
Romas
  IC50: 10 to 50 nM
NCI-H929
  IC50: 10 to 50 nM

## O=C1CCC(N2Cc3cc(CNC(=O)Nc4ccc(COCC5CCCNC5)c(Cl)c4)ccc3C2=O)C(=O)N1 (stereo not drawn) [Compound B8]
HL-60
  IC50: 10 to 50 nM
NCI-H82
  IC50: 10 to 50 nM
SK-BR-3
  IC50: 10 to 50 nM
Romas
  IC50: 10 to 50 nM
NCI-H929
  IC50: 10 to 50 nM

## O=C1CCC(N2Cc3cc(CNC(=O)Nc4ccc(COCCC5CCCNC5)c(Cl)c4)ccc3C2=O)C(=O)N1 (stereo not drawn) [Compound B9]
HL-60
  IC50: < 10 nM
NCI-H82
  IC50: 10 to 50 nM
SK-BR-3
  IC50: 10 to 50 nM
Romas
  IC50: 10 to 50 nM
NCI-H929
  IC50: < 10 nM

## O=C1CCC(N2Cc3cc(CNC(=O)Nc4ccc(COCCCC5CCCNC5)c(Cl)c4)ccc3C2=O)C(=O)N1 (stereo not drawn) [Compound B10]
HL-60
  IC50: 10 to 50 nM
NCI-H82
  IC50: > 100 nM
SK-BR-3
  IC50: 10 to 50 nM
Romas
  IC50: 10 to 50 nM
NCI-H929
  IC50: < 10 nM

## O=C1CCC(N2Cc3cc(CNC(=O)Nc4ccc(CCOC5CCCNC5)c(Cl)c4)ccc3C2=O)C(=O)N1 (stereo not drawn) [Compound B13]
HL-60
  IC50: < 10 nM
NCI-H82
  IC50: 10 to 50 nM
SK-BR-3
  IC50: 10 to 50 nM
Romas
  IC50: 10 to 50 nM
NCI-H929
  IC50: < 10 nM

## O=C1CCC(N2Cc3cc(CNC(=O)Nc4ccc(CCOCC5CCCNC5)c(Cl)c4)ccc3C2=O)C(=O)N1 (stereo not drawn) [Compound B14]
HL-60
  IC50: < 10 nM
NCI-H82
  IC50: 10 to 50 nM
SK-BR-3
  IC50: 10 to 50 nM
Romas
  IC50: < 10 nM
NCI-H929
  IC50: < 10 nM

## O=C1CCC(N2Cc3cc(CNC(=O)Nc4ccc(CCOCCC5CCCNC5)c(Cl)c4)ccc3C2=O)C(=O)N1 (stereo not drawn) [Compound B15]
HL-60
  IC50: < 10 nM
NCI-H82
  IC50: > 100 nM
SK-BR-3
  IC50: 10 to 50 nM
Romas
  IC50: 10 to 50 nM
NCI-H929
  IC50: 10 to 50 nM

## O=C1CCC(N2Cc3cc(CNC(=O)Nc4ccc(CCCOCC5CCCNC5)c(Cl)c4)ccc3C2=O)C(=O)N1 (stereo not drawn) [Compound B20]
HL-60
  IC50: < 10 nM
NCI-H82
  IC50: 10 to 50 nM
SK-BR-3
  IC50: < 10 nM
Romas
  IC50: < 10 nM
NCI-H929
  IC50: < 10 nM

## O=C1CCC(N2Cc3cc(CNC(=O)Nc4ccc(CCCOCCC5CCCNC5)c(Cl)c4)ccc3C2=O)C(=O)N1 (stereo not drawn) [Compound B21]
HL-60
  IC50: < 10 nM
NCI-H82
  IC50: > 100 nM
SK-BR-3
  IC50: 10 to 50 nM
Romas
  IC50: 10 to 50 nM
NCI-H929
  IC50: 10 to 50 nM

## O=C1CCC(N2Cc3cc(CNC(=O)Nc4ccc(CCCCOC5CCCNC5)c(Cl)c4)ccc3C2=O)C(=O)N1 (stereo not drawn) [Compound B25]
HL-60
  IC50: < 10 nM
NCI-H82
  IC50: 10 to 50 nM
SK-BR-3
  IC50: < 10 nM
Romas
  IC50: < 10 nM
NCI-H929
  IC50: < 10 nM

## CNC1CCCC(OCCc2ccc(NC(=O)NCc3ccc4c(c3)CN(C3CCC(=O)NC3=O)C4=O)cc2Cl)C1 (stereo not drawn) [Compound B43]
HL-60
  IC50: < 10 nM
NCI-H82
  IC50: 10 to 50 nM
SK-BR-3
  IC50: < 10 nM
Romas
  IC50: < 10 nM
NCI-H929
  IC50: < 10 nM

## CNC1COCC(OCCc2ccc(NC(=O)NCc3ccc4c(c3)CN(C3CCC(=O)NC3=O)C4=O)cc2Cl)C1 (stereo not drawn) [Compound B44]
HL-60
  IC50: < 10 nM
NCI-H82
  IC50: 10 to 50 nM
SK-BR-3
  IC50: < 10 nM
Romas
  IC50: < 10 nM
NCI-H929
  IC50: < 10 nM

## CNCC1(COCCc2ccc(NC(=O)NCc3ccc4c(c3)CN(C3CCC(=O)NC3=O)C4=O)cc2Cl)CCCCC1 (stereo not drawn) [Compound B45]
HL-60
  IC50: < 10 nM
NCI-H82
  IC50: 10 to 50 nM
SK-BR-3
  IC50: < 10 nM
Romas
  IC50: < 10 nM
NCI-H929
  IC50: < 10 nM

## O=C1CCC(N2Cc3cc(CNC(=O)Nc4ccc(CCOCCNC5CCCCC5)c(Cl)c4)ccc3C2=O)C(=O)N1 (stereo not drawn) [Compound B46]
HL-60
  IC50: < 10 nM
NCI-H82
  IC50: > 100 nM
SK-BR-3
  IC50: 50 to 100 nM
Romas
  IC50: 50 to 100 nM
NCI-H929
  IC50: 10 to 50 nM

## O=C1CCC(N2Cc3cc(CNC(=O)Nc4ccc(CCOCCNC5CC5)c(Cl)c4)ccc3C2=O)C(=O)N1 (stereo not drawn) [Compound B47]
HL-60
  IC50: 10 to 50 nM
NCI-H82
  IC50: > 100 nM
SK-BR-3
  IC50: > 100 nM
Romas
  IC50: > 100 nM
NCI-H929
  IC50: 10 to 50 nM

## O=C1CCC(N2Cc3cc(CNC(=O)Nc4ccc(CCOCCNC5CCOCC5)c(Cl)c4)ccc3C2=O)C(=O)N1 (stereo not drawn) [Compound B48]
HL-60
  IC50: < 10 nM
NCI-H82
  IC50: > 100 nM
SK-BR-3
  IC50: 50 to 100 nM
Romas
  IC50: 50 to 100 nM
NCI-H929
  IC50: 10 to 50 nM

## CNCCOCCC1(c2ccc(NC(=O)NCc3ccc4c(c3)CN(C3CCC(=O)NC3=O)C4=O)cc2Cl)CCCCC1 (stereo not drawn) [Compound B51]
HL-60
  IC50: 10 to 50 nM
NCI-H82
  IC50: > 100 nM
SK-BR-3
  IC50: 50 to 100 nM
Romas
  IC50: 50 to 100 nM
NCI-H929
  IC50: 10 to 50 nM

## O=C1CCC(N2Cc3cc(CNC(=O)Nc4ccc(CCOCC5CNCCO5)c(Cl)c4)ccc3C2=O)C(=O)N1 (stereo not drawn) [Compound B53]
HL-60
  IC50: < 10 nM
NCI-H82
  IC50: 10 to 50 nM
SK-BR-3
  IC50: < 10 nM
Romas
  IC50: < 10 nM
NCI-H929
  IC50: < 10 nM

## CNCC1CCCC(OCCc2ccc(NC(=O)NCc3ccc4c(c3)CN(C3CCC(=O)NC3=O)C4=O)cc2Cl)C1 (stereo not drawn) [Compound B54]
HL-60
  IC50: < 10 nM
NCI-H82
  IC50: 10 to 50 nM
SK-BR-3
  IC50: 10 to 50 nM
Romas
  IC50: 10 to 50 nM
NCI-H929
  IC50: < 10 nM

## O=C1CCC(N2Cc3cc(CNC(=O)Nc4ccc(CCCOC5CCNC5)c(Cl)c4)ccc3C2=O)C(=O)N1 (stereo not drawn) [Compound B64]
HL-60
  IC50: < 10 nM
NCI-H82
  IC50: 10 to 50 nM
SK-BR-3
  IC50: < 10 nM
Romas
  IC50: < 10 nM
NCI-H929
  IC50: < 10 nM

## O=C1CCC(N2Cc3cc(CNC(=O)Nc4ccc(CCCOCC5CCCN5)c(Cl)c4)ccc3C2=O)C(=O)N1 (stereo not drawn) [Compound B65]
HL-60
  IC50: < 10 nM
NCI-H82
  IC50: 10 to 50 nM
SK-BR-3
  IC50: < 10 nM
Romas
  IC50: < 10 nM
NCI-H929
  IC50: < 10 nM

## CC1(OCCCc2ccc(NC(=O)NCc3ccc4c(c3)CN(C3CCC(=O)NC3=O)C4=O)cc2Cl)CCNCC1 (stereo not drawn) [Compound B66]
HL-60
  IC50: < 10 nM
NCI-H82
  IC50: 10 to 50 nM
SK-BR-3
  IC50: < 10 nM
Romas
  IC50: < 10 nM
NCI-H929
  IC50: < 10 nM

## CC1(OCCCc2ccc(NC(=O)NCc3ccc4c(c3)CN(C3CCC(=O)NC3=O)C4=O)cc2Cl)CCCNC1 (stereo not drawn) [Compound B67]
HL-60
  IC50: < 10 nM
NCI-H82
  IC50: 10 to 50 nM
SK-BR-3
  IC50: < 10 nM
Romas
  IC50: < 10 nM
NCI-H929
  IC50: < 10 nM

## O=C1CCC(N2Cc3cc(CNC(=O)Nc4ccc(CCCOC5CC6(CNC6)C5)c(Cl)c4)ccc3C2=O)C(=O)N1 (stereo not drawn) [Compound B68]
HL-60
  IC50: < 10 nM
NCI-H82
  IC50: 10 to 50 nM
SK-BR-3
  IC50: < 10 nM
Romas
  IC50: < 10 nM
NCI-H929
  IC50: < 10 nM

## O=C1CCC(N2Cc3cc(CNC(=O)Nc4ccc(CCCOC5CNCC6CCCCC65)c(Cl)c4)ccc3C2=O)C(=O)N1 (stereo not drawn) [Compound B70]
HL-60
  IC50: < 10 nM
NCI-H82
  IC50: 10 to 50 nM
SK-BR-3
  IC50: 10 to 50 nM
Romas
  IC50: 10 to 50 nM
NCI-H929
  IC50: < 10 nM

## O=C1CCC(N2Cc3cc(CNC(=O)Nc4ccc(CCCOC5CCNC6CC65)c(Cl)c4)ccc3C2=O)C(=O)N1 (stereo not drawn) [Compound B71]
HL-60
  IC50: < 10 nM
NCI-H82
  IC50: 10 to 50 nM
SK-BR-3
  IC50: < 10 nM
Romas
  IC50: < 10 nM
NCI-H929
  IC50: < 10 nM

## O=C1CCC(N2Cc3cc(CNC(=O)Nc4ccc(CCCOC5CCNCC56CC6)c(Cl)c4)ccc3C2=O)C(=O)N1 (stereo not drawn) [Compound B72]
HL-60
  IC50: < 10 nM
NCI-H82
  IC50: 10 to 50 nM
SK-BR-3
  IC50: 10 to 50 nM
Romas
  IC50: 10 to 50 nM
NCI-H929
  IC50: < 10 nM

— patent publication EP4667463A1, “DOMIDE MOLECULAR GLUE DERIVATIVE AND USE THEREOF” (CSPC Megalith Biopharmaceutical Co., Ltd., priority 2023, dated 2024)
